Laboratory results from the supplement of paper PMC10307832.

Assays:
Assay in all cases: relative viability (nuclei count vs DMSO), 5 days (fraction); higher = more cells survive
[1] = compound: CCc1c2c(nc3ccc(OC(=O)N4CCC(N5CCCCC5)CC4)cc13)-c1cc3c(c(=O)n1C2)COC(=O)[C@]3(O)CC [Irinotecan] + Nc1nc2[nH]cc(CCc3ccc(C(=O)N[C@@H](CCC(=O)O)C(=O)O)cc3)c2c(=O)[nH]1 [Pemetrexed] (partner 0.2 µM)
How it was run: (§1)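 The day after seeding in 1536-well plates, lung cancer cell lines were treated by pin tool with a single drug, or with a fixed anchor-drug dose together with five library-drug doses (not always all listed) in √10 steps. After 5 days, a combined fix-and-stain solution (final 0.05% Triton X-100, 1% formaldehyde, 1 ug/ml Hoechst) was added. Nuclei counted on 4× images gave relative viability as treated counts over vehicle counts, reported as the median of duplicate plates.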

[2] = compound: Cn1cc(-c2cnc3ccc4ccc(CS(=O)(=O)NCc5ccccn5)cc4c(=O)c3c2)cn1 [MK-8033] + Cc1cc(Nc2cc(N3CCN(C)CC3)nc(Sc3ccc(NC(=O)C4CC4)cc3)n2)n[nH]1 [Tozasertib] (partner 0.1 µM)
How it was run: as §1

[3] = compound: Cn1cc(-c2cnc3ccc4ccc(CS(=O)(=O)NCc5ccccn5)cc4c(=O)c3c2)cn1 [MK-8033] + CS(=O)(=O)CCNCc1ccc(-c2ccc3ncnc(Nc4ccc(OCc5cccc(F)c5)c(Cl)c4)c3c2)o1 [Lapatinib] (partner 2 µM)
How it was run: as §1

[4] = compound: Cn1cc(-c2cnc3ccc4ccc(CS(=O)(=O)NCc5ccccn5)cc4c(=O)c3c2)cn1 [MK-8033] + CC(C)C[C@H](NC(=O)[C@H](Cc1ccccc1)NC(=O)c1cnccn1)B(O)O [Bortezomib] (partner 0.002 µM)
How it was run: as §1

| Cell Line | relative viability ([1]; first compound 0.6325 µM) | relative viability ([1]; first compound 2 µM) | relative viability ([1]; first compound 6.325 µM) | relative viability ([1]; first compound 20 µM) | relative viability ([2]; first compound 0.02 µM) | relative viability ([2]; first compound 0.06325 µM) | relative viability ([2]; first compound 0.2 µM) | relative viability ([2]; first compound 0.6325 µM) | relative viability ([2]; first compound 2 µM) | relative viability ([3]; first compound 0.02 µM) | relative viability ([3]; first compound 0.06325 µM) | relative viability ([3]; first compound 0.2 µM) | relative viability ([3]; first compound 0.6325 µM) | relative viability ([3]; first compound 2 µM) | relative viability ([4]; first compound 0.02 µM) | relative viability ([4]; first compound 0.06325 µM) | relative viability ([4]; first compound 0.2 µM) | relative viability ([4]; first compound 0.6325 µM) | relative viability ([4]; first compound 2 µM) |
| --- | --- | --- | --- | --- | --- | --- | --- | --- | --- | --- | --- | --- | --- | --- | --- | --- | --- | --- | --- |
| SK-MES-1 | 0.839 | 0.808 | 0.312 | 0.142 | 0.902 | 0.825 | 0.872 | 0.886 | 0.822 | 0.433 | 0.437 | 0.478 | 0.459 | 0.441 | – | – | – | – | – |
| HOP-62 | 0.0967 | 0.337 | 0.17 | 0.166 | 0.406 | 0.339 | 0.359 | 0.352 | 0.344 | 1.01 | 0.753 | 0.786 | 1.07 | 0.987 | 0.932 | 0.85 | 0.333 | 0.555 | 0.897 |
| NCI-H520 | 0.509 | 0.277 | 0.273 | 0.167 | 0.408 | 0.453 | 0.433 | 0.485 | 0.469 | 0.959 | 0.853 | 0.784 | 0.867 | 0.79 | 0.471 | 0.309 | 0.495 | 0.565 | 0.446 |
| EBC-1 | – | – | – | – | – | – | – | – | – | 0.182 | 0.218 | 0.217 | 0.21 | 0.203 | 0.532 | 0.489 | 0.597 | 0.563 | 0.309 |
| BEN | 0.535 | 0.828 | 0.415 | 0.485 | 0.544 | 0.491 | 0.461 | 0.492 | 0.545 | 0.695 | 0.679 | 0.649 | 0.738 | 0.75 | 0.937 | 0.751 | 0.578 | 0.631 | 0.807 |
| NCI-H322M | 0.568 | 0.659 | 0.518 | 0.266 | 0.522 | 0.464 | 0.427 | 0.449 | 0.44 | 0.605 | 0.508 | 0.531 | 0.575 | 0.602 | 1.29 | 1.2 | 1.11 | 1.14 | 1.18 |
| LU99A | 0.162 | 0.126 | 0.155 | 0.109 | 0.268 | 0.262 | 0.281 | 0.268 | 0.269 | 1.03 | 0.892 | 0.97 | 0.893 | 0.764 | 1.32 | 1.09 | 1.09 | 1.13 | 1.12 |
| NCI-H2405 | – | 1.12 | 0.315 | 0.256 | 0.735 | 0.726 | 0.724 | 0.734 | 0.789 | 0.967 | 0.944 | 1.09 | 1.03 | 1.1 | 1 | 0.961 | 0.932 | 0.771 | 1.03 |
| NCI-H1395 | – | 0.754 | 0.518 | 0.246 | 0.757 | 0.651 | 0.735 | 0.76 | 0.707 | 1.1 | 0.958 | 0.858 | 0.931 | 1.35 | – | – | – | – | – |
